# Measured values as given in patent US20170291890A1 (Epizyme, Inc., priority 2014, published 2017).
# pIC50: −log10 of the molar value.
# Target: T1, KDM4A (Homo sapiens, UniProt O75164)
# T1 construct: N-terminal His-tagged KDM4A^1-350 was purchased from BPS Biosciences; His (N); purchased BPS Biosciences
# T1 sequence (O75164 1-350): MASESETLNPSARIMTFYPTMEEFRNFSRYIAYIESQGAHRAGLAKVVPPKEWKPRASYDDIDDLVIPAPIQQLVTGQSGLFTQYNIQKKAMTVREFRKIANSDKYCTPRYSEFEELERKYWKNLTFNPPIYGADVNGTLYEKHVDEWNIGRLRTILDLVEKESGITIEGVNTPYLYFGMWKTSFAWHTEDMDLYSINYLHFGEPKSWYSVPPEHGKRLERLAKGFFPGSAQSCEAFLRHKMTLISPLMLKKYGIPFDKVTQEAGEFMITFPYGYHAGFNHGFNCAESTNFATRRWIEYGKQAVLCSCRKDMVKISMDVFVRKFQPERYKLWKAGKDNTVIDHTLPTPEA
# Assay: KDM4A Assay (SAMDI mass spectrometry demethylase assay)
# Format: biochemical
# Conditions: N-terminal His-tagged KDM4A 1-350; class symbols; read-out: 4A IC50
# Method: N-terminal His-tagged KDM4A^1-350 was purchased from BPS Biosciences. Peptides were synthesized by BioPeptide and all other reagents were purchased from Sigma-Aldrich at the highest level of purity possible. Assays were performed in a 50 μL volume in 384-well V-bottom polypropylene microplates (Greiner) at 25° C. Optimized 1× assay buffer was 50 mM HEPES (pH=8.0), 100 μM sodium ascorbate, 20 mM NaCl, 10 μM ammonium iron sulfate, 1 mM tris(2-carboxyethyl)phosphine (TCEP), 0.002% Tween-20, and 0.005% BSG. For compound screening, 35 μL of KDM4A^1-350 (final concentration, f.c.=5 nM) was added using a Multidrop Combi and preincubated with 1 μL of test compound (f.c.=10 μM) for 30 minutes and subsequently 15 μL of peptide with the following sequence NH2-ARTKQTAR(Kme2)STGGKAPRKQLA(K-Ahx-Biotin)-amide (f.c.=600 nM) and 2-oxoglutarate (f.c.=5 μM) was added by Multidrop Combi to begin the reaction. Reactions proceeded for 120 minutes and were stopped by the addition of 5 μL of formic acid (f.c.=0.5%) using a Multidrop Combi and then analyzed by SAMDI Tech Inc.
# SAMDI Tech analyzed all reactions using self-assembled monoloayer desorption/ionization technology as previously described (Gerard-Levin Z A, Scholle M D, Eisenberg A H, et al.: High-throughput screening of small molecule libraries using SAMDI mass spectrometry. ACS Comb Sci 2011; 13:347-350). Briefly, a 2 μL sample of the stopped demethylase reactions were transferred to a SAMDI array coated with 384 biotin-neutravidin spots using a 384-channel pipet station. The SAMDI arrays were incubated for 1 h in a humidified chamber, followed by washing of the surface with deionized ultra-filtered water (DIUF) and drying under nitrogen. A matrix of 30 mg/ml 2′,4′,6′-Trihydroxyacetophenone monohydrate (THAP) in acetone was applied using a TPP Mosquito 1.2 μL tip by dispensing 50 nL on each of the 384 spots on the array. SAMDI-MS was run using acquisition method ReflectorPositiveUTX. The % conversion of substrate to product was calculated using the AUC of the substrate and product peptide peaks.
# An IC50 value was determined by contacting various concentrations of a test compound with one of the KDM4A, KDM4C or KDMSC enzyme constructs and plotting a dose-response curve which associates the amount of inhibition of the enzyme relative to the concentration of the test compound. From the curve, the IC50 value (which represents the concentration of the test compound necessary to inhibit maximal enzymatic activity by 50%) was determined. Additionally, the slope of the linear range of the plotted curve, which indicates the speed with which the curve rises between the minimum and maximum, was calculated.
row,pIC50,Compound
1,7.00 to 9.00,Cc1c(Nc2cnccc2C(=O)O)cnn1C1CCN(C2CCC2)CC1 [Compound 96]
2,6.00 to 7.00,"Cc1c(Nc2cnccc2C(=O)O)cnn1C1CCN(CC(F)(F)F)CC1 [Compound 100, 3-(5-methyl-1-(1-(2,2,2-tri-fluoro-ethyl)piperidin-4-yl)-1H-pyrazol-4-ylamino)isonicotinic acid]"
3,6.00 to 7.00,"Cc1nn(CCN(C)C)cc1Nc1cnccc1C(=O)O [Compound 107, 3-(1-(2-(dimethylamino)ethyl)-3-methyl-1H-pyrazol-4-ylamino) isonicotinic acid]"
4,5.00 to 6.00,"CN(C)CCn1ncc(-c2ccccc2)c1Nc1cnccc1C(=O)O [Compound 65, 3-((1-(2-(dimethylamino)ethyl)-4-phenyl-1H-pyrazol-5-yl)amino)isonicotinic acid]"
5,6.00 to 7.00,"O=C(O)c1ccncc1Nc1nn(-c2ccccc2)cc1-c1ccccc1 [Compound 42, 3-((1,4-diphenyl-1H-pyrazol-3-yl)amino)isonicotinic acid]"
6,6.00 to 7.00,"Cn1ncc(-c2ccccc2F)c1Nc1cnccc1C(=O)O [Compound 12, 3-((4-(2-fluorophenyl)-1-methyl-1H-pyrazol-5-yl)amino) isonicotinic acid]"
7,6.00 to 7.00,"Cc1nn(C2CCN(C(C)C)CC2)cc1Nc1cnccc1C(=O)O [Compound 102, 3-((1-(1-isopropylpiperidin-4-yl)-3-methyl-1H-pyrazol-4-yl)amino)isonicotinic acid]"
8,6.00 to 7.00,"O=C(O)c1ccncc1Nc1nn(CCC(F)(F)F)cc1-c1ccncc1 [Compound 74, 3-((4-(pyridin-4-yl)-1-(3,3,3-trifluoropropyl)-1H-pyrazol-3-yl)amino)isonicotinic acid]"
9,4.00 to 5.00,"O=C(O)c1ccncc1Nc1c(-c2ccccc2)cnn1-c1ccccc1 [Compound 43, 3-((1,4-Diphenyl-1H-pyrazol-5-yl)amino)isonicotinic acid]"
10,6.00 to 7.00,"Cn1nc(-c2cccc(Cl)c2)cc1Nc1cnccc1C(=O)O [Compound 25, 3-((3-(3-chlorophenyl)-1-methyl-1H-pyrazol-5-yl)amino) isonicotinic acid]"
11,6.00 to 7.00,"Cc1c(Nc2cnccc2C(=O)O)cnn1C1CCCN(C)CC1 (stereo not drawn) [Compound 112, 3-((5-methyl-1-(1-methylazepan-4-yl)-1H-pyrazol-4-yl)amino)isonicotinic acid]"
12,5.00 to 6.00,"Cc1n[nH]c(-c2ccccc2)c1Nc1cnccc1C(=O)O [Compound 55, 3-((5-methyl-3-phenyl-1H-pyrazol-4-yl)amino)isonicotinic acid]"

# More lines, now with the values behind:
row,Compound,pIC50
1,Cn1ncc(-c2ccccc2)c1Nc1cnccc1C(=O)O [Compound 1],6.00 to 7.00
2,"CN(C)CCCn1cc(-c2ccccc2)c(Nc2cnccc2C(=O)O)n1 [Compound 51, 3-((1-(3-(dimethylamino)propyl)-4-phenyl-1H-pyrazol-3-yl)amino) isonicotinic acid]",7.00 to 9.00
3,Cn1nc(-c2ccccc2)cc1Nc1cnccc1C(=O)O [Compound 6],6.00 to 7.00
4,"CN(C)CCn1cc(-c2ccccc2)c(Nc2cnccc2C(=O)O)n1 [Compound 64, 3-((1-(2-(dimethylamino)ethyl)-4-phenyl-1H-pyrazol-3-yl)amino)isonicotinic acid]",7.00 to 9.00
5,"O=C(O)c1ccncc1Nc1cc(-c2ccccc2)nn1-c1ccncc1 [Compound 56, 3-((3-phenyl-1-(pyridin-4-yl)-1H-pyrazol-5-yl)amino) isonicotinic acid]",6.00 to 7.00
6,"COc1ccc(-n2nc(C)c(Nc3cnccc3C(=O)O)c2C)cc1 [Compound 75, 3-((1-(4-methoxyphenyl)-3,5-dimethyl-1H-pyrazol-4-yl)amino)isonicotinic acid]",6.00 to 7.00
7,"Cc1c(Nc2cnccc2C(=O)O)cnn1C1CCN(C(=O)c2ccccc2)CC1 [Compound 98, 3-(1-(1-benzoylpiperidin-4-yl)-5-methyl-1H-pyrazol-4-ylamino) isonicotinic acid]",6.00 to 7.00
8,"CC(C)n1nc(-c2ccccc2)cc1Nc1cnccc1C(=O)O [Compound 22, 3-((1-Isopropyl-3-phenyl-1H-pyrazol-5-yl)amino)isonicotinic acid]",6.00 to 7.00
9,"N[C@H]1CC[C@@H](n2nc(-c3ccccc3)cc2Nc2cnccc2C(=O)O)CC1 [Compound 37, 3-((1-((cis)-4-aminocyclohexyl)-3-phenyl-1H-pyrazol-5-yl)amino)isonicotinic acid]",6.00 to 7.00
10,"Cc1c(-c2ccccc2)nn(CCN2CCC(F)(F)CC2)c1Nc1cnccc1C(=O)O [Compound 66, 3-((1-(2-(4,4-difluoropiperidin-1-yl)ethyl)-4-methyl-3-phenyl-1H-pyrazol-5-yl)amino)isonicotinic acid]",4.00 to 5.00
11,"Cc1nn(C2CCN(C(=O)c3ccccc3)CC2)cc1Nc1cnccc1C(=O)O [Compound 97, 3-(1-(1-benzoylpiperidin-4-yl)-3-methyl-1H-pyrazol-4-ylamino) isonicotinic acid]",5.00 to 6.00
12,"Cc1cc(Nc2cnccc2C(=O)O)n(-c2ccccc2)n1 [Compound 61, 3-((3-methyl-1-phenyl-1H-pyrazol-5-yl)amino) isonicotinic acid]",6.00 to 7.00
13,"Cn1ncc(-c2ccc(F)cc2)c1Nc1cnccc1C(=O)O [Compound 8, 3-((4-(4-fluorophenyl)-1-methyl-1H-pyrazol-5-yl)amino) isonicotinic acid]",5.00 to 6.00
14,"O=C(O)c1ccncc1Nc1cnn(CCN2CCC(F)(F)CC2)c1-c1ccccc1 [Compound 18, 3-((1-(2-(4,4-difluoropiperidin-1-yl)ethyl)-5-phenyl-1H-pyrazol-4-yl)amino)isonicotinic acid]",6.00 to 7.00
15,"Cc1c(-c2ccccc2)nn(C)c1Nc1cnccc1C(=O)O [Compound 53, 3-((1,4-dimethyl-3-phenyl-1H-pyrazol-5-yl)amino)isonicotinic acid]",6.00 to 7.00
16,"O=C(O)c1ccncc1Nc1cc(-c2ccccc2)nn1[C@H]1CC[C@H](O)CC1 [Compound 39, 3-((1-((trans)-4-hydroxycyclohexyl)-3-phenyl-1H-pyrazol-5-yl)amino)isonicotinic acid]",5.00 to 6.00
17,"Cn1cc(Nc2cnccc2C(=O)O)c(-c2ccccc2)n1 [Compound 13, 3-((1-methyl-3-phenyl-1H-pyrazol-4-yl)amino) isonicotinic acid]",5.00 to 6.00
18,"Cc1nn(C2CCN(CC(F)(F)F)CC2)cc1Nc1cnccc1C(=O)O [Compound 99, 3-(3-methyl-1-(1-(2,2,2-trifluoroethyl)piperidin-4-yl)-1H-pyrazol-4-ylamino)isonicotinic acid]",6.00 to 7.00
19,"Cn1cc(-c2cccc(F)c2)c(Nc2cnccc2C(=O)O)n1 [Compound 9, 3-((4-(3-Fluorophenyl)-1-methyl-1H-pyrazol-3-yl)amino) isonicotinic acid]",6.00 to 7.00
20,"O=C(O)c1ccncc1Nc1nn(CCC(F)(F)F)cc1-c1ccccc1 [Compound 73, 3-((4-phenyl-1-(3,3,3-trifluoropropyl)-1H-pyrazol-3-yl)amino) isonicotinic acid]",6.00 to 7.00
21,"O=C(O)c1ccncc1Nc1nn(CCN2CCC(F)(F)CC2)cc1-c1ccccc1 [Compound 14, 3-((1-(2-(4,4-Difluoropiperidin-1-yl)ethyl)-4-phenyl-1H-pyrazol-3-yl)amino)isonicotinic acid]",6.00 to 7.00
22,"O=C(O)c1ccncc1Nc1nn(CCN2CCC(F)(F)CC2)cc1C1CCCCC1 [Compound 57, 3-((4-cyclohexyl-1-(2-(4,4-difluoropiperidin-1-yl)ethyl)-1H-pyrazol-3-yl)amino)isonicotinic acid]",6.00 to 7.00
23,"Cn1cc(-c2ccc(F)cc2)c(Nc2cnccc2C(=O)O)n1 [Compound 7, 3-((4-(4-Fluorophenyl)-1-methyl-1H-pyrazol-3-yl)amino) isonicotinic acid]",6.00 to 7.00
24,"Cc1cc(Nc2cnccc2C(=O)O)n(C2CCOCC2)n1 [Compound 78, 3-((3-methyl-1-(tetrahydro-2H-pyran-4-yl)-1H-pyrazol-5-yl)amino) isonicotinic acid]",6.00 to 7.00
